Measurements reported in patent US12042523B2, “Compositions and methods for managing or improving bone disorders, joint disorders, cartilage disorders, or a combination thereof” (Unigen, Inc., priority 2014, dated 2024).

Tested on: MIA-induced osteoarthritis in Sprague-Dawley rats
Assay: Bone histomorphometry (Micro CT) in therapeutic MIA induced osteoarthritis model
Format: in vivo, rat
Procedure: Male Sprague-Dawley (SD) rats weighing 170˜230 g (6 weeks of age) were purchased and acclimated for one week. […] Anesthetized rats were injected with 0.8 mg of MIA in 50 μl saline solution into the intra-articular pocket. One week after MIA induction, samples were administrated daily with gastric tube for 6 weeks. Bone histomorphometry was evaluated on both femur and tibia per knee joint in rats from the MIA-induced osteoarthritis model by Micro CT scan using an Inveon™ unit (Siemens Healthcare USA, Inc., Pennsylvania, USA) at Korea Basic science institute, Ochang, Korea. BMD was used as an indicator of osteoporosis and fracture risk; BV/TV as an indicator of trabecular bone volume refers to the ratio of the trabecular bone volume to the total volume; BS/BV as an indicator of trabecular turnover refers to the ratio of the trabecular bone surface to the trabecular bone volume of a region of interest.

[1] = treatment from one week after MIA, daily 6 weeks, Diclofenac 10 mg/kg, GM 500 mg/kg, mean ± SD

Compound: O=C(O)Cc1ccccc1Nc1c(Cl)cccc1Cl [Diclofenac]
- BV/TV compared with vehicle group (therapeutic MIA model): decreasing tendency
- BMD (mg/cm3) [1]: 896.2 ± 29.4 mg/cm3
- BS/BV [1]: 9.11 ± 1.41
- BV/TV (%) [1]: 65.35 ± 7.75%
